Where two headings read alike, the source gives them in different places.

Consider 15 molecules from paper PMC9229165, “In Vitro Anticancer Activity Screening of Novel Fused Thiophene Derivatives as VEGFR-2/AKT Dual Inhibitors and Apoptosis Inducers” (Pharmaceuticals, 2022).

The test system of one data set is HepG2 cells. Description: MTT antiproliferative assay on HepG2. It counts as cell-based. The conditions noted are these: mean ± S.D. (n = 3), read-out: Cytotoxicity in IC50, HepG2. Here is the method: (§1) The antiproliferative activity of the thiophene compounds 3a–g, 4a–c, 6a, and 7a–d was evaluated by an in vitro MTT colorimetric assay on two oncogenic cell lines: liver (HepG2) and prostate (PC-3).
(§2) All cell lines (HepG2, PC-3, and nontumorigenic WI38) were supplied from VACSERA (Cairo, Egypt), cultured in DMEM (Invitrogen/Life Technologies, Waltham, MA, USA) at a density of 1.2–1.8 × 10,000 cells/well in a volume of 100 µL of the growth medium, and then incubated for 24 h, and an MTT assay was done as reported by.
(Tetrazolium assays rely on reduction of a dye to a coloured formazan, in cell work by metabolically active cells.)

In a further data set the test system is PC-3 cells. Description: MTT antiproliferative assay on PC-3. It is filed as cell-based. To be noted: mean ± S.D. (n = 3), read-out: Cytotoxicity in IC50, PC-3. Here is the method:
as §1, §2

In a further data set the test system is WI38 cells. Nature of the data set: MTT assay on normal nononcogenic cell line WI38. The conditions noted are these: calculated by dividing the IC50 of WI38/PC-3, SI > 2 is considered safe. It is filed as cell-based. Here is the method:
(§3) The aforementioned results illustrate that compounds 3b and 4c are the most promising cytotoxic agents on both cell lines and will be subjected to a thorough mechanistic study to understand their anticancer activity. However, before doing this, their selective toxicity and, thus, their safety were evaluated by measuring the IC50 values against the normal nononcogenic cell line (Wl38) by an MTT assay as listed in Table 1. […] Compound 3b gave SI of 6, and compound 4c gave SI = 12 showing better selectivity toward cancer cells than doxorubicin with SI = 5.
as §2

A short description of data set [1]: MTT assay on normal nononcogenic cell line WI38. To be noted: human, WI38 cells (normal nononcogenic cell line); MTT assay; noncancerous cell line; mean ± S.D. (n = 3); read-out: Cytotoxicity in IC50, WI38. It counts as cell-based. Here is the method: as §3, §2
Another data set has as its system caspase-3. Description: Active caspase-3 ELISA in HepG2 cells. It counts as cell-based, human. Here is the method:
Apoptosis is known to be carried out through three different pathways: intrinsic, extrinsic, and granzyme pathways. One of the controlling proteins in apoptosis is the cysteine protease named caspase with the chief executer caspase 3 [46, 47]. Accordingly, assessing the effect of 3b and 4c on the active caspase-3 level was done in HepG2 cells taking doxorubicin as the reference drug.
The colorimetric ELISA assay for active caspase-3 detection was carried out utilizing Invitrogen™ Caspase-3 (Cleaved) Human ELISA-Kit (KHO1091, CA, USA) according to the manufacturer’s procedures. ROBONIK P2000 ELISA reader was used at 450 nm, and the standard curve was obtained by plotting the mean absorbance of each standard concentration against human caspase-3 concentrations.

For data set [2], the target named is T1, AKT-1 (Homo sapiens, UniProt P31749). Nature of the data set: Phospho-AKT1 (Ser473) cell-based phosphorylation ELISA in HepG2 cells. The arrangement: endogenous in cells; host or cells: HepG2. Here is the method: To investigate the success of the design strategy developed in this work, the effect of the promising candidates 3b and 4c was assessed on AKT-1, a crucial protein, by determining their phosphorylation inhibition rate in HepG2 cells and measuring their biochemical kinase inhibitory activity.
T1 sequence (P31749 whole entry): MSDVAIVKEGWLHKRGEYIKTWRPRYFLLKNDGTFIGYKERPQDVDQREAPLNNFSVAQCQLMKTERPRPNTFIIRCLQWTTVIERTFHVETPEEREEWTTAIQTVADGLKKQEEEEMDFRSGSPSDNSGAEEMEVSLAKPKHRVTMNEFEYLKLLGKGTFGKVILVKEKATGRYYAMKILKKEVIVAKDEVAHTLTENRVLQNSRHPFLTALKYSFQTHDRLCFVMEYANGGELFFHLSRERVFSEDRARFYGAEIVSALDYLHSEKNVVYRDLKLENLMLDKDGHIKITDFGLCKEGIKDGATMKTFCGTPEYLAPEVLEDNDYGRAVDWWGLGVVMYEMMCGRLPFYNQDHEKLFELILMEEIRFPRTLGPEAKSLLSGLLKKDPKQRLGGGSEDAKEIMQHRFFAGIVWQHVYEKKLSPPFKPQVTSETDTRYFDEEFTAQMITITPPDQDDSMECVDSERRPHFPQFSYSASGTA
VEGFR-2 phosphorylation was assayed using VEGFR2 Antibody (Phospho-Tyr951) (OAEC00085, AVIVA SYSTEM BIOLOGY), while Akt-1 was assayed by Mouse/Human/Rat Phospho-AKT1 (Ser473) (Cell-Based Phosphorylation ELISA) ELISA Kit-LS-F1447 (LSBio) according to manufacturer’s instructions.
Background: In an ELISA, binding on a coated surface is turned into a signal by an enzyme label.

The target in data set [3] is T1, AKT-1. Nature of the data set: Akt kinase activity assay kit on cell lysate. It is filed as biochemical. To be noted: LY2780301 as reference.
From the text: The outcomes were expressed as IC50 values (mean standard deviation) calculated from the dose–response curves and their linear regression equations.

By IC50 is commonly meant the concentration that inhibits the measured activity by half. Turning to `COc1cc(-c2nc3sc4c(c3c(=O)[nH]2)N(C)CC4)cc(OC)c1OC` [3g, 5-Methyl-2-(3,4,5-trimethoxyphenyl)-3,5,6,7-tetrahydro-4H-pyrrolo[2′,3′:4,5]thieno[2,3-d]pyrimidin-4-one], the IC50 in the data set with HepG2 cells (Homo sapiens, HepG2, MTT assay) was 3.77 ± 0.17 µM; with PC-3 cells (Homo sapiens, PC-3, MTT assay), 20.5 ± 1.15 µM.
By melting point is commonly meant the temperature of the solid-liquid transition. Molecule `CN1CCc2sc3nc(-c4ccc(F)cc4)[nH]c(=O)c3c21` [3d, 2-(4-Fluorophenyl)-5-methyl-3,5,6,7-tetrahydro-4H-pyrrolo[2′,3′:4,5]thieno[2,3-d]pyrimidin-4-one] registered a melting point of 108 to 110 °C. The IC50 in the data set on HepG2 cells (Homo sapiens, HepG2, MTT assay) amounted to 13.4 ± 0.62 µM. Besides, the IC50 in the data set on PC-3 cells (Homo sapiens, PC-3, MTT assay) was 19 ± 1.06 µM.
In the case of `CCOC(=O)c1c(/N=C(/Nc2cc(C)ccc2Cl)SCC(=O)Nc2ccc(Br)cc2)sc2c1N(C)CC2` [7b, Ethyl (Z)-2-((((2-((4-bromophenyl)amino)-2-oxoethyl)thio)((2-chloro-5-methylphenyl)amino)methylene)amino)-4-methyl-5,6-dihydro-4H-thieno[3,2-b]pyrrole-3-carboxylate], the melting point is over 250 °C. The IC50 in the data set with HepG2 cells (Homo sapiens, HepG2, MTT assay) was 2.48 ± 0.11 µM. Besides, the IC50 in the data set on PC-3 cells (Homo sapiens, PC-3, MTT assay) came out at 26.6 ± 1.49 µM.
`CCOC(=O)c1c(/N=C(/NC)SCC(=O)Nc2ccc(Cl)cc2)sc2c1N(C)CC2` [6a, Ethyl (Z)-2-((((2-((4-chlorophenyl)amino)-2-oxoethyl)thio)(methylamino)methylene)amino)-4-methyl-5,6-dihydro-4H-thieno[3,2-b]pyrrole-3-carboxylate] came in with a melting point of 140 to 141 °C. For the same molecule, the IC50 with HepG2 cells (Homo sapiens, HepG2, MTT assay) was found to be 9.8 ± 0.45 µM. Also, the IC50 with PC-3 cells (Homo sapiens, PC-3, MTT assay) was 0.5 ± 0.03 µM.
`Cc1ccc(-c2nc3sc4c(c3c(=O)[nH]2)N(C)CC4)cc1` [3e, 5-Methyl-2-(p-tolyl)-3,5,6,7-tetrahydro-4H-pyrrolo[2′,3′:4,5]thieno[2,3-d]pyrimidin-4-one]: the melting point was in the range of 155 to 156 °C. Besides, in the data set on HepG2 cells (Homo sapiens, HepG2, MTT assay), the IC50 is 22.4 ± 1.03 µM. The IC50 in the data set on PC-3 cells (Homo sapiens, PC-3, MTT assay) is 39.7 ± 2.22 µM.
For `CCOC(=O)c1c(NC(=S)NC)sc2c1N(C)CC2` [4a, Ethyl 4-methyl-2-(3-methylthioureido)-5,6-dihydro-4H-thieno[3,2-b]pyrrole-3-carboxylate], in that order: 132 to 134 °C, 41.1 ± 1.9 µM and 1.84 ± 0.1 µM.
`CN1CCc2sc3nc(-c4ccc(Br)cc4)[nH]c(=O)c3c21` [3c, 2-(4-Bromophenyl)-5-methyl-3,5,6,7-tetrahydro-4H-pyrrolo[2′,3′:4,5]thieno[2,3-d]pyrimidin-4-one] yielded a melting point of 113 to 114 °C. In the data set with HepG2 cells (Homo sapiens, HepG2, MTT assay), the IC50 came to 107 ± 4.94 µM. Besides, the IC50 in the data set with PC-3 cells (Homo sapiens, PC-3, MTT assay) was determined as 10.5 ± 0.59 µM.
Turning to `COc1cccc2c1C(=O)c1c(O)c3c(c(O)c1C2=O)C[C@@](O)(C(=O)CO)C[C@@H]3O[C@H]1C[C@H](N)[C@H](O)[C@H](C)O1` [Doxorubicin, reference compound], the IC50 stood at 2.09 ± 0.1 µM in the data set on HepG2 cells (Homo sapiens, HepG2, MTT assay); 9.84 ± 0.54 µM in data set [1]; 2.53 ± 0.14 µM in the data set on PC-3 cells (Homo sapiens, PC-3, MTT assay). Besides, the “Selectivity Index (SI)” value in the data set on WI38 cells is recorded as 4.69; in the data set with WI38 cells (listed as doxorubicin), 5. Besides, the “Increase in active caspase-3 level over the untreated cells” value with caspase-3 is listed as “seven-fold”.
Regarding `CN(C)CCn1cc(-c2ccc(F)c(C(F)(F)F)c2)nc1C1CCN(c2ncnc3c2CC(=O)N3)CC1` [LY2780301, reference compound], on AKT-1 [2], the “AKT-1 phosphorylation inhibition rate” value is recorded as 68.6%. Moreover, on AKT-1 [3], the IC50 is 4.62 µM.
`CCOC(=O)c1c(/N=C(/Nc2cc(C)ccc2Cl)SCC(=O)Nc2ccc(OC)cc2)sc2c1N(C)CC2` [7c, Ethyl (Z)-2-((((2-chloro-5-methylphenyl)amino)((2-((4-methoxyphenyl)amino)-2-oxoethyl)thio)methylene)amino)-4-methyl-5,6-dihydro-4H-thieno[3,2-b]pyrrole-3-carboxylate] displayed a melting point of 110 to 112 °C. Besides, in the data set with HepG2 cells (Homo sapiens, HepG2, MTT assay), the IC50 amounted to 39.6 ± 1.83 µM. In the data set on PC-3 cells (Homo sapiens, PC-3, MTT assay), the IC50 stood at 9.72 ± 0.54 µM.
`CCOC(=O)c1c(/N=C(/Nc2cc(C)ccc2Cl)SCC(=O)Nc2ccc(Cl)cc2)sc2c1N(C)CC2` [7a, Ethyl (Z)-2-((((2-chloro-5-methylphenyl)amino)((2-((4-chlorophenyl)amino)-2-oxoethyl)thio)methylene)amino)-4-methyl-5,6-dihydro-4H-thieno[3,2-b]pyrrole-3-carboxylate] had a melting point of 82 to 83 °C. Moreover, the IC50 with HepG2 cells (Homo sapiens, HepG2, MTT assay) is 27.3 ± 1.26 µM. In addition, the IC50 in the data set on PC-3 cells (Homo sapiens, PC-3, MTT assay) was determined as 81.1 ± 4.54 µM.
In turn, `CN1CCc2sc3nc(-c4ccccc4)[nH]c(=O)c3c21` [3a, 5-Methyl-2-phenyl-3,5,6,7-tetrahydro-4H-pyrrolo[2′,3′:4,5]thieno[2,3-d]pyrimidin-4-one] registered a melting point of over 250 °C. Moreover, the IC50 with HepG2 cells (Homo sapiens, HepG2, MTT assay) came out at 7.96 ± 0.37 µM. Moreover, the IC50 in the data set with PC-3 cells (Homo sapiens, PC-3, MTT assay) was 29.6 ± 1.66 µM.
For `CCOC(=O)c1c(/N=C(/Nc2cc(C)ccc2Cl)SCC(=O)Nc2ccc(C)cc2)sc2c1N(C)CC2` [7d, Ethyl (Z)-2-((((2-chloro-5-methylphenyl)amino)((2-oxo-2-(p-tolylamino)ethyl)thio)methylene)amino)-4-methyl-5,6-dihydro-4H-thieno[3,2-b]pyrrole-3-carboxylate], in that order: 118 to 120 °C, 8.91 ± 0.41 µM and 6.35 ± 0.36 µM.
`CCNC(=S)Nc1sc2c(c1C(=O)OCC)N(C)CC2` [4b, Ethyl 2-(3-ethylthioureido)-4-methyl-5,6-dihydro-4H-thieno[3,2-b]pyrrole-3-carboxylate] yielded a melting point of 135 to 136 °C. Moreover, the IC50 with HepG2 cells (Homo sapiens, HepG2, MTT assay) was 34.2 ± 1.58 µM. Also, in the data set on PC-3 cells (Homo sapiens, PC-3, MTT assay), the IC50 was determined as 19.3 ± 1.08 µM.
In the case of `COc1ccc(-c2nc3sc4c(c3c(=O)[nH]2)N(C)CC4)cc1` [3f, 2-(4-Methoxyphenyl)-5-methyl-3,5,6,7-tetrahydro-4H-pyrrolo[2′,3′:4,5]thieno[2,3-d]pyrimidin-4-one], the melting point was 117 to 118 °C. Also, in the data set with HepG2 cells (Homo sapiens, HepG2, MTT assay), the IC50 was determined as 4.3 ± 0.2 µM. For the same molecule, the IC50 in the data set on HepG2 cells (MTT assay) is 4.3 ± 0.2 µM. Moreover, the IC50 in the data set on PC-3 cells (Homo sapiens, PC-3, MTT assay) turned out to be 7.47 ± 0.42 µM. The IC50 in the data set on PC-3 cells (MTT assay) is 7.47 ± 0.42 µM.
